{"source": "patent US20230235374A1", "about": "“High Throughput Assays for Detecting Translation Readthrough Inducers” (The Trustees of the University of Pennsylvania, priority 2021, published 2023)", "key": {"[1]": {"test_system": "POST5 complex (eRF1 & 3 peptide release)", "assay": "Fluorometer anisotropy measurement of POST5 complex Stop IRES-Lys*", "assay_type": "biochemical", "details": "0.1 μM POST5, eRF1 0.1 μM, eRF3 0.2 μM, GTP 2.0 mM, 25° C.", "description": "Fluorometer measurements of POST5 complex Stop IRES-Lys* included the following treatment methods and components:\nPOST5 complex was treated with ternary complexes of release factor 1 and 3 and GTP. Lys was labeled with the fluorescent label Atto647. Conditions for the assay were as follows: at 25° C., Buffer condition included 0.1 μM POST 5. Release factor 1 and 3 (eRF1 & 3) POST 5 condition included 0.1 μM POST5; eRF1 at 0.1 μM; eRF3 at 0.2 μM; and GTP at 2 mM. Release factor 1 and 3 (eRF1 & 3) POST 5 and ataluren condition included 0.1 μM POST5; eRF1 at 0.1 μM; eRF3 at 0.2 μM; GTP at 2.0 mM; and Ataluren at […]."}, "[2]": {"test_system": "Stop-POST5 complex (RFC-dependent termination)", "assay": "smTIRF assay of RFC-dependent peptide and tRNA release", "assay_type": "biochemical, shrimp (Artemia salina)", "description": "Immobilization of ribosome Stop-POST 5 complexes. PEGylated flow chambers were incubated in 0.5 mg/ml streptavidin for 5 mins and washed with Buffer 4. Biotinylated Stop-POST5 containing FK(atto647)VRQ-tRNA^Gln (Cy3) in the P-site, was formed at room temperature by incubating Stop-POST4, eEF1A, GTP, and Gln-(Cy3)tRNA^Gln for 5 mins and then injected into the streptavidin-coated slide chamber. After a 5 min incubation, excess unbound ribosome was flowed out. Then eRF1/eRF3±TRIDs was injected dynamically at 3 sec while recording. The injection dead time was subtracted for each particle.\nSingle-molecule fluorescence imaging. All sm-TIRF studies were carried out at 24° C. All dilutions, complex formation, and single-molecule imaging were carried out in Buffer 4 with an added enzymatic oxygen scavenging system of 2 mM protocatechuic acid (PCA), 50 nM protocatechunate 3,4 dioxygenase (PCD, Sigma Aldrich), 1 mM cyclooctatetraene (COT, Sigma Aldrich), 1 mM 4-nitrobenzyl alcohol (NBA, Sigma Aldrich), and 1.5 mM 6-hydroxy-2,5,7,8-tetramethyl-chromane-2-carboxylic acid (Trolox, Sigma-Aldrich) (Flis et al., Cell reports, 25(10), 2676-2688 (2018).\nImage stacks were recorded at 100 ms frame rate on a custom-built objective-type total internal reflection fluorescence (TIRF) microscope based on a commercial inverted microscope (Eclipse Ti-E, Nikon) and capable of performing alternating-laser excitation (ALEX) between 532 nm and 640 nm laser beams using an acousto-optic tunable filter (AOTF, Chen et al., 2011). For the time-lapse experiment, timing of the movies, programmed into NIS-Elements (Nikon) microscope software, were recorded by illuminating the sample for 50-20 frames at 10 frames per s with 15 s or […] intervening dark intervals. Video recording was started and then eRF1/eRF3±TRIDs was injected from a triggered syringe pump at 3 sec while recording. The injection dead time was subtracted for each particle. Triggering of the shutters, AOTF, and pump was synchronized using LabView scripts driven from the camera exposure signal.\nData analysis. Collected movies were analyzed by a custom-made software program developed as an ImageJ plugin (Chen et al., Mol. Cell, 42, 367-377 (2011)), and further analyzed using Python. Distributions of peptide and tRNA dissociation times were fit to eq (5), using maximum likelihood estimation (Bevington and Robinson. Data Reduction and Error Analysis for the Physical Sciences. New York: McGraw-Hill, (2002); Woody et al., Biophys. J. 111, 273-282 (2016)), where P is the probability density.\nsmTIRF results using Atto(pep)-Cy-Stop-POST5 attached to surface-immobilized ribosomes. Although the distance between the two fluorophores is not close enough to produce FRET, fluorescent pairs could be identified by co-localization on the slide under alternating 532 nm and 640 nm total internal reflection fluorescence (TIRF) illumination. This permits near-simultaneous monitoring of the dynamics of peptide and P-site tRNA release from the Stop-POST5 complex following RFC binding.\nTo reduce photobleaching of each fluorophore, time-lapse movies were recorded with bursts of 20 or 50 frames at 100 ms frame intervals interleaved by 20 s intervals with the lasers shuttered. Total recording time for each trial was 20 min.\nFIG. 8A and FIG. 8C show typical frame by frame recordings indicating a loss of signal for both labeled peptide and labeled tRNA after the addition of the RFC to Atto(pep)-Cy(tRNA)-Stop-POST5. Either peptide (a) or tRNA (b) can dissociate first, in approximately equal proportions. Photobleaching of Cy3-labeled tRNA and Atto647-labeled peptide in the absence of eRF1/eRF3 was much slower (FIG. 8E and FIG. 8F). Under the time lapse illumination employed, mean lifetimes for Atto647-peptide and Cy3-tRNA at 0.32 μM eRF1 and 2 μM eRF3 were each 2.45 min. […]"}, "[3]": {"details": "0.081 μM RFC, 1000 μM ataluren added 4-25 s later, 24° C."}}, "data": [{"smiles": "O=C(O)c1cccc(-c2noc(-c3ccccc3F)n2)c1", "note": "[Ataluren]", "values": [{"measurement": "effect on peptide release (fluorescence anisotropy change)", "setting": "[1]", "result": "inhibited peptide release"}, {"measurement": "mode of inhibition of RFC", "setting": "[2]", "result": "apparent competitive inhibitor"}, {"measurement": "effect on CC value of peptide and tRNA lifetimes", "setting": "[2]; 0.032 μM RFC and 1 mM ataluren, FIG. 10C", "result": "did not change the CC value"}, {"measurement": "rate constant for elimination of ataluren's inhibitory effect after RFC addition, peptide", "setting": "[2]; [3]", "result": "9.6 ± 2.6", "unit": "min⁻¹"}, {"measurement": "rate constant for elimination of ataluren's inhibitory effect after RFC addition, tRNA", "setting": "[2]; [3]", "result": "10.8 ± 3.6", "unit": "min⁻¹"}, {"measurement": "effect on Vmax values at high RFC concentration", "setting": "[2]; 200, 500, 1000 μM ataluren", "result": "little affected"}, {"measurement": "KA, inhibition of pentapeptide release rate constants", "setting": "[2]; measured by both smTIRF and fluorescence anisotropy, eRF1 32 nM, FIG. 9H", "result": "250 ± 20", "unit": "µM"}, {"measurement": "KA, inhibition of tRNA release", "setting": "[2]; smTIRF", "result": "180 ± 10", "unit": "µM"}, {"measurement": "effects on the rates of peptide and tRNA release", "setting": "[2]; steps after tRNA-peptide bond cleavage", "result": "no direct effects"}]}]}
